Species on record: Rattus norvegicus
Experiment: DrugMatrix - Regimen: Daily Repeat
Assay type: toxicity, organism-based, Sprague-Dawley
Parameters: regimen Daily Repeat, gender Male, age 6-8 weeks
Details: in vivo, po, route oral GAVAGE, vehicle .5 % CMC; for ABSOLUTE BASOPHIL / ABSOLUTE EOSINOPHIL / ABSOLUTE LYMPHOCYTE / ABSOLUTE MONOCYTE / ABSOLUTE SEGMENTED NEUTROPHIL / BASOPHIL / EOSINOPHIL / ERYTHROCYTE COUNT / HEMATOCRIT / HEMOGLOBIN / LEUKOCYTE COUNT / LYMPHOCYTE / MEAN CORPUSCULAR HEMOGLOBIN / MEAN CORPUSCULAR HEMOGLOBIN CONCENTRATION / MONOCYTE / NEUTROPHIL / NUCLEATED RED BLOOD CELLS / PLATELET COUNT: tissue Blood; for ALANINE AMINOTRANSFERASE / ALBUMIN / ALKALINE PHOSPHATASE / ASPARTATE AMINOTRANSFERASE / BLOOD UREA NITROGEN / CARBON DIOXIDE / CHLORIDE / CHOLESTEROL / CREATININE / GLUCOSE / LACTATE DEHYDROGENASE / LIPASE / PHOSPHORUS / POTASSIUM / SODIUM / TOTAL BILIRUBIN / TOTAL PROTEIN / URIC ACID: tissue Plasma
[1] = 50 mg/kg, 72 h, dose level Low, time 3 day
[2] = 50 mg/kg, 120 h, dose level Low, time 5 day
[3] = 600 mg/kg, 72 h, dose level High, time 3 day
[4] = 600 mg/kg, 120 h, dose level High, time 5 day

Compound: N[C@@H]1[C@H]2CN(c3nc4c(cc3F)c(=O)c(C(=O)O)cn4-c3ccc(F)cc3F)C[C@@H]12 [TROVAFLOXACIN]
- ABSOLUTE BASOPHIL [1]: 0 CELLS/uL
- ABSOLUTE EOSINOPHIL [1]: 332.33 CELLS/uL
- ABSOLUTE LYMPHOCYTE [1]: 13247 CELLS/uL
- ABSOLUTE MONOCYTE [1]: 338.33 CELLS/uL
- ABSOLUTE SEGMENTED NEUTROPHIL [1]: 2282.33 CELLS/uL
- BASOPHIL [1]: 0%
- EOSINOPHIL [1]: 2%
- ERYTHROCYTE COUNT [1]: 5.64 x10E6/uL
- HEMATOCRIT [1]: 34.17%
- HEMOGLOBIN [1]: 12.5 G/DL
- LEUKOCYTE COUNT [1]: 16.2 x10E3/uL
- LYMPHOCYTE [1]: 82%
- MEAN CORPUSCULAR HEMOGLOBIN [1]: 22.13 pg
- MEAN CORPUSCULAR HEMOGLOBIN CONCENTRATION [1]: 36.57 G/DL
- MONOCYTE [1]: 2%
- NEUTROPHIL [1]: 14%
- NUCLEATED RED BLOOD CELLS [1]: 0 /100WBC
- PLATELET COUNT [1]: 1160 x10E3/uL
- ALANINE AMINOTRANSFERASE [1]: 50.67 u/L
- ALBUMIN [1]: 4.23 G/DL
- ALKALINE PHOSPHATASE [1]: 421 u/L
- ASPARTATE AMINOTRANSFERASE [1]: 75.33 u/L
- BLOOD UREA NITROGEN [1]: 16 mg/dL
- CARBON DIOXIDE [1]: 27 mmol/L
- CHLORIDE [1]: 102.33 MEQ/L
- CHOLESTEROL [1]: 86.33 mg/dL
- CREATININE [1]: 0.17 mg/dL
- GLUCOSE [1]: 151 mg/dL
- LACTATE DEHYDROGENASE [1]: 114.67 u/L
- LIPASE [1]: 9.33 u/L
- PHOSPHORUS [1]: 13.33 mg/dL
- POTASSIUM [1]: 6.87 MEQ/L
- SODIUM [1]: 148.2 MEQ/L
- TOTAL BILIRUBIN [1]: 0.17 mg/dL
- TOTAL PROTEIN [1]: 6.3 G/DL
- URIC ACID [1]: 1.47 mg/dL
- ABSOLUTE BASOPHIL [2]: 0 CELLS/uL
- ABSOLUTE EOSINOPHIL [2]: 225.67 CELLS/uL
- ABSOLUTE LYMPHOCYTE [2]: 14834.67 CELLS/uL
- ABSOLUTE MONOCYTE [2]: 380.67 CELLS/uL
- ABSOLUTE SEGMENTED NEUTROPHIL [2]: 2392.33 CELLS/uL
- BASOPHIL [2]: 0%
- EOSINOPHIL [2]: 1.33%
- ERYTHROCYTE COUNT [2]: 5.73 x10E6/uL
- HEMATOCRIT [2]: 34.4%
- HEMOGLOBIN [2]: 12.63 G/DL
- LEUKOCYTE COUNT [2]: 17.83 x10E3/uL
- LYMPHOCYTE [2]: 82.67%
- MEAN CORPUSCULAR HEMOGLOBIN [2]: 22.13 pg
- MEAN CORPUSCULAR HEMOGLOBIN CONCENTRATION [2]: 36.73 G/DL
- MONOCYTE [2]: 2%
- NEUTROPHIL [2]: 14%
- NUCLEATED RED BLOOD CELLS [2]: 0 /100WBC
- PLATELET COUNT [2]: 1198 x10E3/uL
- ALANINE AMINOTRANSFERASE [2]: 44.67 u/L
- ALBUMIN [2]: 4 G/DL
- ALKALINE PHOSPHATASE [2]: 375.33 u/L
- ASPARTATE AMINOTRANSFERASE [2]: 95 u/L
- BLOOD UREA NITROGEN [2]: 15.33 mg/dL
- CARBON DIOXIDE [2]: 27.67 mmol/L
- CHLORIDE [2]: 100.33 MEQ/L
- CHOLESTEROL [2]: 77.67 mg/dL
- CREATININE [2]: 0.14 mg/dL
- GLUCOSE [2]: 165.33 mg/dL
- LACTATE DEHYDROGENASE [2]: 482.33 u/L
- LIPASE [2]: 9 u/L
- PHOSPHORUS [2]: 13.63 mg/dL
- POTASSIUM [2]: 6.38 MEQ/L
- SODIUM [2]: 144.47 MEQ/L
- TOTAL BILIRUBIN [2]: 0.13 mg/dL
- TOTAL PROTEIN [2]: 5.9 G/DL
- URIC ACID [2]: 2.13 mg/dL
- ABSOLUTE BASOPHIL [3]: 0 CELLS/uL
- ABSOLUTE EOSINOPHIL [3]: 206 CELLS/uL
- ABSOLUTE LYMPHOCYTE [3]: 11774.33 CELLS/uL
- ABSOLUTE MONOCYTE [3]: 306 CELLS/uL
- ABSOLUTE SEGMENTED NEUTROPHIL [3]: 3013.67 CELLS/uL
- BASOPHIL [3]: 0%
- EOSINOPHIL [3]: 1.33%
- ERYTHROCYTE COUNT [3]: 5.75 x10E6/uL
- HEMATOCRIT [3]: 34.53%
- HEMOGLOBIN [3]: 12.7 G/DL
- LEUKOCYTE COUNT [3]: 15.3 x10E3/uL
- LYMPHOCYTE [3]: 78.33%
- MEAN CORPUSCULAR HEMOGLOBIN [3]: 22.13 pg
- MEAN CORPUSCULAR HEMOGLOBIN CONCENTRATION [3]: 36.77 G/DL
- MONOCYTE [3]: 2%
- NEUTROPHIL [3]: 18.33%
- NUCLEATED RED BLOOD CELLS [3]: 0 /100WBC
- PLATELET COUNT [3]: 1258 x10E3/uL
- ALANINE AMINOTRANSFERASE [3]: 35.33 u/L
- ALBUMIN [3]: 4.27 G/DL
- ALKALINE PHOSPHATASE [3]: 290.67 u/L
- ASPARTATE AMINOTRANSFERASE [3]: 69.67 u/L
- BLOOD UREA NITROGEN [3]: 19.67 mg/dL
- CARBON DIOXIDE [3]: 25.33 mmol/L
- CHLORIDE [3]: 106.33 MEQ/L
- CHOLESTEROL [3]: 81.33 mg/dL
- CREATININE [3]: 0.16 mg/dL
- GLUCOSE [3]: 145 mg/dL
- LACTATE DEHYDROGENASE [3]: 197 u/L
- LIPASE [3]: 9.33 u/L
- PHOSPHORUS [3]: 13.8 mg/dL
- POTASSIUM [3]: 6.71 MEQ/L
- SODIUM [3]: 151.87 MEQ/L
- TOTAL BILIRUBIN [3]: 0.17 mg/dL
- TOTAL PROTEIN [3]: 6.43 G/DL
- URIC ACID [3]: 1.63 mg/dL
- ABSOLUTE BASOPHIL [4]: 0 CELLS/uL
- ABSOLUTE EOSINOPHIL [4]: 229.8 CELLS/uL
- ABSOLUTE LYMPHOCYTE [4]: 12826.8 CELLS/uL
- ABSOLUTE MONOCYTE [4]: 343 CELLS/uL
- ABSOLUTE SEGMENTED NEUTROPHIL [4]: 1100.4 CELLS/uL
- BASOPHIL [4]: 0%
- EOSINOPHIL [4]: 1.6%
- ERYTHROCYTE COUNT [4]: 5.94 x10E6/uL
- HEMATOCRIT [4]: 35.56%
- HEMOGLOBIN [4]: 12.98 G/DL
- LEUKOCYTE COUNT [4]: 14.5 x10E3/uL
- LYMPHOCYTE [4]: 88.4%
- MEAN CORPUSCULAR HEMOGLOBIN [4]: 21.88 pg
- MEAN CORPUSCULAR HEMOGLOBIN CONCENTRATION [4]: 36.5 G/DL
- MONOCYTE [4]: 2.4%
- NEUTROPHIL [4]: 7.6%
- NUCLEATED RED BLOOD CELLS [4]: 0 /100WBC
- PLATELET COUNT [4]: 1294.2 x10E3/uL
- ALANINE AMINOTRANSFERASE [4]: 42 u/L
- ALBUMIN [4]: 4.16 G/DL
- ALKALINE PHOSPHATASE [4]: 348.4 u/L
- ASPARTATE AMINOTRANSFERASE [4]: 67.4 u/L
- BLOOD UREA NITROGEN [4]: 17.8 mg/dL
- CARBON DIOXIDE [4]: 29.6 mmol/L
- CHLORIDE [4]: 102 MEQ/L
- CHOLESTEROL [4]: 83 mg/dL
- CREATININE [4]: 0.15 mg/dL
- GLUCOSE [4]: 156 mg/dL
- LACTATE DEHYDROGENASE [4]: 129.8 u/L
- LIPASE [4]: 9.8 u/L
- PHOSPHORUS [4]: 14.22 mg/dL
- POTASSIUM [4]: 6.78 MEQ/L
- SODIUM [4]: 146.28 MEQ/L
- TOTAL BILIRUBIN [4]: 0.14 mg/dL
- TOTAL PROTEIN [4]: 6 G/DL
- URIC ACID [4]: 1.88 mg/dL

— ChEMBL document CHEMBL3885881, “DrugMatrix”
